# Reference: patent publication US8273775B2, “Non-steroidal brassinosteroid mimetic” (priority 2006, dated 2012)
# System: gene expression in Col-0 seedling shoots
# Assay: Microarray analysis (ATH1 Affymetrix) after BL or abrasin treatment
# Assay type: in vivo, Arabidopsis
# Description: FIG. 14: Clustering of gene expression profiles by QT-clust analysis. Clusters illustrating the major patterns of the data sets. Points: BIK-30: 30 μM abrasin 30 min; BL-30: 1 μM brassinolide 30 min; DMSO-30: control DMSO 30 min; BIK-120: 30 μM abrasin 120 min; BL-120: 1 μM brassinolide 120 min; DMSO-120: control DMSO 120 min.
# Col-0 seeds were germinated vertically on ½ MS medium for 7 days under 16 h light/8 h dark cycles. The seedlings were overlaid with liquid ½ MS medium containing 1 μM brassinolide (BL, Fuji Chemical Industries, Ltd., Toyama, Japan), 30 μM abrasin (BIK, ChemBridge Corporation) and DMSO and treated for 30 and 120 min. The shoot parts were collected for RNA isolation. All sampling points were performed in three independent experiments. RNA was extracted using RNeasy kit (Qiagene). […] total RNA per array was used to hybridise the ATH1 Affymetrix Arabidopsis arrays according to standard procedure. The overrepresentation analyses were performed using BiNGO software (Maere et al., 2005).
# We performed a microarray analysis using the Arabidopsis whole genome chip (Affymetix) to determine whether abrasin activated the expression of BR-inducible genes at transcriptional level. Wild-type Col-0 seedlings were exposed to 1 μM BL, 30 μM ABRASIN and DMSO (mock-treatment) for two time points (30 min and 120 min) and the shoot parts were collected for RNA isolation. The analysis of the variance of the normalized gene expression data took in account the variability parameters affecting the expression level: type of hormone treatment, duration of treatment and the interaction between these two.
smiles,measurement,setting,value
"O=C(O)CCC(=O)Nc1ccc(Br)cn1 [abrasin, 4-[(5-bromo-2-pyridinyl)amino]-4-oxobutanoic acid]",Fold-change of gene AT2G42380 (bZIP transcription factor family protein),"30 min, 265877_at, Cluster 6",1.65
same,Fold-change of gene AT2G45080 (cyclin family protein),"30 min, 266124_at, Cluster 8",0.77
same,Fold-change AT1G04330 expressed protein,120 min,4.41
same,Fold-change AT1G05470 endonuclease/exonuclease/phosphatase family protein,120 min,2.59
same,Fold-change AT1G06520 Encodes a membrane associated mitochondrial localized protein,120 min,2.28
same,Fold-change AT1G06570 4-hydroxyphenylpyruvate dioxygenase (HPD),120 min,0.29
same,Fold-change AT1G10550 xyloglucan:xyloglucosyl transferase,120 min,1.66
same,Fold-change AT1G12710 F-box family protein,120 min,1.41
same,Fold-change AT1G12750 rhomboid family protein,120 min,1.60
same,Fold-change AT1G14130 2-oxoglutarate-dependent dioxygenase,120 min,2.47
same,Fold-change AT1G14700 purple acid phosphatase,120 min,0.47
same,Fold-change AT1G16640 transcriptional factor B3 family protein,120 min,2.20
same,Fold-change AT1G17230 leucine-rich repeat family protein,120 min,0.22
same,"Fold-change AT1G18020; AT1G17990 [AT1G18020, 12-oxophytodienoate reductase,",120 min,1.78
same,Fold-change AT1G19320 pathogenesis-related thaumatin family protein,120 min,0.50
same,Fold-change AT1G20350 mitochondrial import inner membrane translocase subunit,120 min,2.67
same,Fold-change AT1G21050 expressed protein,120 min,0.14
same,Fold-change AT1G21760 F-box family protein,120 min,0.46
same,Fold-change AT1G22360 UDP-glucoronosyl/UDP-glucosyl transferase family protein,120 min,0.32
same,Fold-change AT1G23080 auxin efflux carrier protein (PIN7),120 min,0.33
same,"Fold-change AT1G26800 zinc finger (C3HC4-type RING finger) family protein,",120 min,4.39
same,Fold-change AT1G27730 zinc finger (C2H2 type) family protein,120 min,1.06
same,Fold-change AT1G28130 encodes an IAA-amido synthase,120 min,0.40
same,Fold-change AT1G28190 expressed protein,120 min,1.65
same,Fold-change AT1G28480 glutaredoxin family protein,120 min,3.97
same,Fold-change AT1G31040 zinc-binding protein-related,120 min,4.37
same,Fold-change AT1G31310 hydroxyproline-rich glycoprotein family protein,120 min,2.45
same,Fold-change AT1G31770 ABC transporter family protein,120 min,0.50
same,Fold-change AT1G32190 expressed protein,120 min,0.07
same,Fold-change AT1G32690 expressed protein,120 min,0.26
same,Fold-change AT1G36940 expressed protein,120 min,0.32
same,Fold-change AT1G49780 U-box domain-containing protein,120 min,0.56
same,"Fold-change AT1G53870; AT1G53890 [AT1G53870, expressed protein",120 min,0.51
same,Fold-change AT1G54050 17.4 kDa class III heat shock protein (HSP17.4-CIII),120 min,2.86
same,Fold-change AT1G54200 expressed protein,120 min,2.19
same,Fold-change AT1G55920 serine O-acetyltransferase,120 min,2.16
same,Fold-change AT1G57560 myb family transcription factor (MYB50),120 min,2.65
same,Fold-change AT1G59590 expressed protein,120 min,2.08
same,Fold-change AT1G59660 nucleoporin family proteinmily,120 min,2.94
same,Fold-change AT1G62300 WRKY family transcription factor,120 min,0.71
same,Fold-change AT1G63050 membrane bound O-acyl transferase (MBOAT) family protein,120 min,0.27
same,"Fold-change AT1G66160 U-box domain-containing protein,",120 min,1.91
same,Fold-change AT1G66890 expressed protein,120 min,0.14
same,Fold-change AT1G68330 expressed protein,120 min,2.78
same,Fold-change AT1G68810 basic helix-loop-helix (bHLH) family protein,120 min,0.41
same,Fold-change AT1G69160 expressed protein,120 min,0.33
same,Fold-change AT1G70990 proline-rich family protein,120 min,3.50
same,Fold-change AT1G71030 Encodes a putative myb family transcription factor,120 min,0.46
same,Fold-change AT1G72060 expressed protein,120 min,5.97
same,Fold-change AT1G72180 leucine-rich repeat transmembrane protein kinase,120 min,0.11
same,"Fold-change AT1G72800 nuM1-related, contains",120 min,2.15
same,Fold-change AT1G75270 dehydroascorbate reductase,120 min,2.62
same,Fold-change AT1G75500 nodulin MtN21 family protein,120 min,0.37
same,"Fold-change AT1G76240 expressed protein,",120 min,0.07
same,Fold-change AT1G76410 zinc finger (C3HC4-type RING finger),120 min,0.16
same,Fold-change AT1G79110 expressed protein,120 min,0.45
same,Fold-change AT1G79630 protein phosphatase 2C family protein,120 min,0.35
same,Fold-change AT1G80440 kelch repeat-containing F-box family protein,120 min,2.89
same,Fold-change AT2G01300 expressed protein,120 min,3.12
same,"Fold-change AT2G01990 expressed protein,",120 min,2.56
same,Fold-change AT2G04240 zinc finger (C3HC4-type RING finger) family protein,120 min,1.72
same,Fold-change AT2G05540 glycine-rich protein,120 min,0.54
same,"Fold-change AT2G12290; AT4G19700 [AT2G12290, expressed protein]; [AT4G19700, expressed protein]",120 min,0.53
same,Fold-change AT2G18010 auxin-responsive family protein (SAUR10),120 min,3.94
same,Fold-change AT2G19800 expressed protein,120 min,2.22
same,Fold-change AT2G22860 phytosulfokines 2 (PSK2),120 min,0.19
same,"Fold-change AT2G23180 cytochrome P450, putative",120 min,0.36
same,Fold-change AT2G23320 WRKY family transcription factor,120 min,1.19
same,Fold-change AT2G26530 expressed protein,120 min,1.99
same,Fold-change AT2G26710 cytochrome p450 family (BAS1),120 min,2.26
same,Fold-change AT2G28510 Dof-type zinc finger domain-containing protein,120 min,1.19
same,Fold-change AT2G29340 short-chain dehydrogenase/reductase (SDR) family protein,120 min,3.73
same,Fold-change AT2G29990 pyridine nucleotide-disulphide oxidoreductase family protein,120 min,1.38
same,Fold-change AT2G30070 potassium transporter (KUP1),120 min,0.22
same,Fold-change AT2G31230 encodes a member of the ERF (ethylene response factor),120 min,3.17
same,Fold-change AT2G34650 protein kinase PINOID (PID),120 min,2.52
same,Fold-change AT2G36220 expressed protein,120 min,2.76
same,Fold-change AT2G37590 Dof-type zinc finger domain-containing protein,120 min,5.81
same,Fold-change AT2G38470 WRKY family transcription factor,120 min,1.34
same,Fold-change AT2G39710 aspartyl protease family protein,120 min,2.52
same,"Fold-change AT2G40340; AT2G40350 [AT2G40340, encodes a member of the DREB subfamily A-2 of ERF/AP2",120 min,3.20
same,Fold-change AT2G41250 haloacid dehalogenase-like hydrolase family protein,120 min,0.33
same,Fold-change AT2G41640 expressed protein,120 min,2.53
same,Fold-change AT2G42280 basic helix-loop-helix (bHLH) family protein,120 min,0.28
same,"Fold-change AT2G43060 expressed protein, similar to cDNA bHLH transcription factor",120 min,0.25
same,Fold-change AT2G43280 far-red impaired responsive family protein,120 min,0.48
same,Fold-change AT2G43290 calmodulin-like protein (MSS3),120 min,1.45
same,Fold-change AT2G44130 kelch repeat-containing F-box family protein,120 min,7.72
same,Fold-change AT2G44500 expressed protein,120 min,2.19
same,Fold-change AT2G45210 auxin-responsive protein-related,120 min,0.24
same,Fold-change AT2G45680 TCP family transcription factor,120 min,0.46
same,Fold-change AT2G46225 Encodes a subunit of the WAVE complex,120 min,0.58
same,Fold-change AT2G47440 DNAJ heat shock N-terminal domain-containing protein,120 min,1.64
same,"Fold-change AT3G04210 disease resistance protein (TIR-NBS class), putative,",120 min,3.17
same,Fold-change AT3G09920 phosphatidylinositol-4-phosphate 5-kinase family protein,120 min,1.07
same,Fold-change AT3G12920 expressed protein,120 min,0.31
same,Fold-change AT3G13040 myb family transcription factor,120 min,0.48
same,Fold-change AT3G13510 expressed protein,120 min,0.42
same,Fold-change AT3G13980 expressed protein,120 min,0.08
same,Fold-change AT3G14370 protein kinase family protein,120 min,2.16
same,Fold-change AT3G14560 expressed protein,120 min,0.35
same,Fold-change AT3G16570 rapid alkalinization factor (RALF) family protein,120 min,0.36
same,Fold-change AT3G17860 expressed protein,120 min,0.45
same,Fold-change AT3G18830 polyol/cyclitol/monosaccharide-H+-symporte,120 min,2.60
same,Fold-change AT3G19380 U-box domain-containing protein,120 min,0.48
same,Fold-change AT3G23030 auxin-responsive protein/indoleacetic acid-induced protein 2 (IAA2),120 min,0.25
same,Fold-change AT3G23550 MATE efflux family protein,120 min,0.38
same,Fold-change AT3G25710 basic helix-loop-helix (bHLH) family protein,120 min,0.10
same,Fold-change AT3G25900 homocysteine S-methyltransferase 1 (HMT-1),120 min,2.67
same,Fold-change AT3G26910 hydroxyproline-rich glycoprotein family protein,120 min,1.85
same,Fold-change AT3G30180 cytochrome p450 enzyme,120 min,0.06
same,"Fold-change AT3G46880 expressed protein,",120 min,1.51
same,Fold-change AT3G47800 aldose 1-epimerase family protein,120 min,0.57
same,Fold-change AT3G48970 copper-binding family protein,120 min,0.38
same,Fold-change AT3G49810 U-box domain-containing protein,120 min,1.12
same,Fold-change AT3G50650 scarecrow-like transcription factor 7 (SCL7),120 min,2.48
same,Fold-change AT3G50660 steroid 22-alpha-hydroxylase (CYP90B1) (DWF4),120 min,0.02
same,Fold-change AT3G50750 brassinosteroid signalling positive regulator-related (BEH1),120 min,0.31
same,Fold-change AT3G52490 heat shock protein-related,120 min,2.41
same,Fold-change AT3G53810 lectin protein kinase,120 min,2.23
same,"Fold-change AT3G54950 patatin-related,",120 min,0.43
same,Fold-change AT3G55120 chalcone-flavanone isomerase,120 min,0.39
same,Fold-change AT3G55150 exocyst subunit EXO70 family protein,120 min,0.48
same,Fold-change AT3G55840 expressed protein,120 min,6.96
same,Fold-change AT3G61460 zinc finger (C3HC4-type RING finger) family protein (BRH1),120 min,0.32
same,Fold-change AT3G63300 expressed protein,120 min,2.07
same,Fold-change AT4G01680 myb family transcription factor (MYB55),120 min,0.14
same,Fold-change AT4G02410 lectin protein kinase family protein,120 min,1.55
same,"Fold-change AT4G08040 1-aminocyclopropane-1-carboxylate synthase, putative",120 min,0.02
same,Fold-change AT4G09460 myb family transcription factor,120 min,3.27
same,Fold-change AT4G12390 invertase/pectin methylesterase inhibitor family protein,120 min,0.44
same,Fold-change AT4G12410 auxin-responsive family protein,120 min,0.31
same,Fold-change AT4G14130 xyloglucan:xyloglucosyl transferase,120 min,0.02
same,Fold-change AT4G15975 zinc finger (C3HC4-type RING finger) family protein,120 min,3.28
same,Fold-change AT4G16146 expressed protein,120 min,0.49
same,Fold-change AT4G16563 aspartyl protease family protein,120 min,1.65
same,Fold-change AT4G16670 expressed protein,120 min,0.34
